According to ChEMBL document CHEMBL3991601, “The target landscape of clinical kinase drugs” (Science, 2017):
pKd: −log10 of the molar value. Active and inactive are the calls of the source.

Columns and labels:
[1] = molecular target: Ephrin type-A receptor 5 (Homo sapiens, UniProt P54756)
[2] = molecular target: T1, Serine/threonine-protein kinase ULK1 (Homo sapiens, UniProt O75385)
T1 sequence (O75385 whole entry): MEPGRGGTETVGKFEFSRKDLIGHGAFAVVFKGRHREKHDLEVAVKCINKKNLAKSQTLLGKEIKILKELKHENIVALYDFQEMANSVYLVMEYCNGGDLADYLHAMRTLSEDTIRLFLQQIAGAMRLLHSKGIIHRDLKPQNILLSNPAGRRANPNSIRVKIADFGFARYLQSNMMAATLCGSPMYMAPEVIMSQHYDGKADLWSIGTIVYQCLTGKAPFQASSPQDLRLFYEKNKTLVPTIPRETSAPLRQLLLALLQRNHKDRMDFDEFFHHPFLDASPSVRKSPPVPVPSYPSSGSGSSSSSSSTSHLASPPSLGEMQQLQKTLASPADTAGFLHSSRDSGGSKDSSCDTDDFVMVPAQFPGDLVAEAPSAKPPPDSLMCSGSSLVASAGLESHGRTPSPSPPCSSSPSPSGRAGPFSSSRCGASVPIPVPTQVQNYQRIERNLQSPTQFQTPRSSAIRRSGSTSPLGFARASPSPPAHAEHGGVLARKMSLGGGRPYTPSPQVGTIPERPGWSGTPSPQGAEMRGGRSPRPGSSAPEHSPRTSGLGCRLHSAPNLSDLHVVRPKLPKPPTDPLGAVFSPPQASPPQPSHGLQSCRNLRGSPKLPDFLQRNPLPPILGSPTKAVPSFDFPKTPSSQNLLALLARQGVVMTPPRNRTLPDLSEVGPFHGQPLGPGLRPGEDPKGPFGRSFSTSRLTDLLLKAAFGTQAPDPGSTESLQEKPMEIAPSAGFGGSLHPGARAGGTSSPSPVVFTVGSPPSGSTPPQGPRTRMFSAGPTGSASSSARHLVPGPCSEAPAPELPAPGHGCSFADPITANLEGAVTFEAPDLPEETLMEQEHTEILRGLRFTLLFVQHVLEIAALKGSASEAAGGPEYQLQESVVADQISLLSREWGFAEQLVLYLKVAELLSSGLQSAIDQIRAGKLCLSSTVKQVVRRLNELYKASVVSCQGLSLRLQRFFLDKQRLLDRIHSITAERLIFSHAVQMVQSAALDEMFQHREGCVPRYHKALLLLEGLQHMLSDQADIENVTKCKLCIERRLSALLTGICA

[3] = molecular target: Insulin receptor (Homo sapiens, UniProt P06213)
[4] = molecular target: cAMP-dependent protein kinase type II-alpha regulatory subunit (Homo sapiens, UniProt P13861)
Chain of cAMP-dependent protein kinase type II-alpha regulatory subunit (P13861 whole entry): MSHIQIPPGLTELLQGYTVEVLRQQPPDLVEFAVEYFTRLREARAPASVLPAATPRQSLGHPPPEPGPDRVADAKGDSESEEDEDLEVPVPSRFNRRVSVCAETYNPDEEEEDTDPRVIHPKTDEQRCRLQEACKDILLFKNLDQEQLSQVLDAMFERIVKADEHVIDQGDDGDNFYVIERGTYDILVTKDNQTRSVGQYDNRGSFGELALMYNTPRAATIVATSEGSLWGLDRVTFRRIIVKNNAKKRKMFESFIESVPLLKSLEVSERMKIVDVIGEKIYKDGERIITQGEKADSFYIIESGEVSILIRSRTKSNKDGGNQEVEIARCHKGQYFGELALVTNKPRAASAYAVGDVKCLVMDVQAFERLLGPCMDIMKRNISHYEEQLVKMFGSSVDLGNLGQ

[5] = molecular target: Activin receptor type-2B (Homo sapiens, UniProt Q13705)
Chain of Activin receptor type-2B (Q13705 whole entry): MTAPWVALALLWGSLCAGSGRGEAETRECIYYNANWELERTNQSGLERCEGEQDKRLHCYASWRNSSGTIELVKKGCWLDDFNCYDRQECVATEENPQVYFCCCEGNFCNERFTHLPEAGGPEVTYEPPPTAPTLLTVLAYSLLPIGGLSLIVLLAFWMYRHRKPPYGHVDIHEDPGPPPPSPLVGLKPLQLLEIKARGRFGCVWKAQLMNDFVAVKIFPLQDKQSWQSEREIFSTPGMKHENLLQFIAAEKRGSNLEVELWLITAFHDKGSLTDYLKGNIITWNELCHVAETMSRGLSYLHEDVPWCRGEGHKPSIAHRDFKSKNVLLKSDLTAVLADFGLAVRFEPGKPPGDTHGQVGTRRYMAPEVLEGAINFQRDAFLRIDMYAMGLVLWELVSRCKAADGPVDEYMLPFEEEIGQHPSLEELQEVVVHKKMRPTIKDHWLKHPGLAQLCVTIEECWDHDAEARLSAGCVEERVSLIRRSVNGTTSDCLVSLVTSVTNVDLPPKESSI

[6] = molecular target: Macrophage-stimulating protein receptor (Homo sapiens, UniProt Q04912)
Chain of Macrophage-stimulating protein receptor (Q04912 25-304 limits assumed): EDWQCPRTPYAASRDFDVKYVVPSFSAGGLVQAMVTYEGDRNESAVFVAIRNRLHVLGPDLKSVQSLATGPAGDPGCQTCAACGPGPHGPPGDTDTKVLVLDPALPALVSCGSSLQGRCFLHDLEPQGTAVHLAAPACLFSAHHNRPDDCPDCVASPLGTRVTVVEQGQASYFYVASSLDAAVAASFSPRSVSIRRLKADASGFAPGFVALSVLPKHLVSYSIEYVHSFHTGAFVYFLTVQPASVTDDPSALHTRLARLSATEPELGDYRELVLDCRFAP
Chain of Macrophage-stimulating protein receptor (Q04912 310-1400 limits assumed): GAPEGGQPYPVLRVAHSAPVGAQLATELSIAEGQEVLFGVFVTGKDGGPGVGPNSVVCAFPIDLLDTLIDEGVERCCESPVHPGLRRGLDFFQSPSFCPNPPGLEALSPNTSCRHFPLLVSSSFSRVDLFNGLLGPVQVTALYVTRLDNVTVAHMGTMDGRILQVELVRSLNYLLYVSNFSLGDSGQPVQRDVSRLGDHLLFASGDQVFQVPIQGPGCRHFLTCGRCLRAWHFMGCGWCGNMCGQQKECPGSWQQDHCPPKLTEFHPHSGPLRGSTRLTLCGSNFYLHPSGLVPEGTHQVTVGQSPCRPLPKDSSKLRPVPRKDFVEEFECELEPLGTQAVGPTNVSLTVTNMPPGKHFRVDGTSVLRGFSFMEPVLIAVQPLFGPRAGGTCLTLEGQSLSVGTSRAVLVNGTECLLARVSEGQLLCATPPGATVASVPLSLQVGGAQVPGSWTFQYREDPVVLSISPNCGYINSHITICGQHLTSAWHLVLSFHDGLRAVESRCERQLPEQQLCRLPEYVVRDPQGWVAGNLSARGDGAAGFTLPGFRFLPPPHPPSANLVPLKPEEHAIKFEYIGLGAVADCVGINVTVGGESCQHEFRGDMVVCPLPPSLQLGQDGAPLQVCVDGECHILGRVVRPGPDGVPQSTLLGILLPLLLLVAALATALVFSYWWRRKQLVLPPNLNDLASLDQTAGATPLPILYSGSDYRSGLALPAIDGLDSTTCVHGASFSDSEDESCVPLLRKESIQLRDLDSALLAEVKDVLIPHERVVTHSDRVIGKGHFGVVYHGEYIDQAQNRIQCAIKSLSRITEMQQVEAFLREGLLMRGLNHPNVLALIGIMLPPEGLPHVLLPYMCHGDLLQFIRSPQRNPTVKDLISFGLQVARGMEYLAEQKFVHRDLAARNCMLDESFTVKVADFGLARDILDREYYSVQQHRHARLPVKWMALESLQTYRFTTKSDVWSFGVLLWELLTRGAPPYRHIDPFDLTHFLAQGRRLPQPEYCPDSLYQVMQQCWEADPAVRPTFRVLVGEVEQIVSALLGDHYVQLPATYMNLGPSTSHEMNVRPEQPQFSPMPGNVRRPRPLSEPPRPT

[7] = molecular target: T2, Glycine--tRNA ligase (Homo sapiens, UniProt P41250)
T2 sequence (P41250 whole entry): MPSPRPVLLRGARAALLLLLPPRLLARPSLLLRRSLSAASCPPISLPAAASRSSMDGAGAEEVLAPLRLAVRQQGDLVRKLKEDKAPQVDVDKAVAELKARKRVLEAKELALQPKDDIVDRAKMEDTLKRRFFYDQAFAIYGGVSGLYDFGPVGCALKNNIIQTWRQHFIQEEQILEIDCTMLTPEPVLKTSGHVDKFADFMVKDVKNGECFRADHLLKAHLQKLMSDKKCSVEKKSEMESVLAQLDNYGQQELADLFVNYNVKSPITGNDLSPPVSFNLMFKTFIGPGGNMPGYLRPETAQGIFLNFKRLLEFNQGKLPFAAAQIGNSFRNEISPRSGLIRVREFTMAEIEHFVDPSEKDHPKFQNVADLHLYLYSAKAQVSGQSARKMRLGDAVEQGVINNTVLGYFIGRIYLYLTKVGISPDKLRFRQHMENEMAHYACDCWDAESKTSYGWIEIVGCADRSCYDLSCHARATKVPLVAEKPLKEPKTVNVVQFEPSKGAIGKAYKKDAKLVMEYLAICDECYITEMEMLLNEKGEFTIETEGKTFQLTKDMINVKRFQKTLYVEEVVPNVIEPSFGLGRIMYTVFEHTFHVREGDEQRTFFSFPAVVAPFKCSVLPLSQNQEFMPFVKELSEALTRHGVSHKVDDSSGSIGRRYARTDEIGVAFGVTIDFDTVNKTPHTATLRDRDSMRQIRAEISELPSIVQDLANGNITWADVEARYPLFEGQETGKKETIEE

[8] = molecular target: Serine/threonine-protein kinase MRCK beta (Homo sapiens, UniProt Q9Y5S2)
[9] = molecular target: Myosin light chain kinase, smooth muscle (Homo sapiens, UniProt Q15746)
[10] = molecular target: Maternal embryonic leucine zipper kinase (Homo sapiens, UniProt Q14680)
Chain of Maternal embryonic leucine zipper kinase (Q14680 whole entry): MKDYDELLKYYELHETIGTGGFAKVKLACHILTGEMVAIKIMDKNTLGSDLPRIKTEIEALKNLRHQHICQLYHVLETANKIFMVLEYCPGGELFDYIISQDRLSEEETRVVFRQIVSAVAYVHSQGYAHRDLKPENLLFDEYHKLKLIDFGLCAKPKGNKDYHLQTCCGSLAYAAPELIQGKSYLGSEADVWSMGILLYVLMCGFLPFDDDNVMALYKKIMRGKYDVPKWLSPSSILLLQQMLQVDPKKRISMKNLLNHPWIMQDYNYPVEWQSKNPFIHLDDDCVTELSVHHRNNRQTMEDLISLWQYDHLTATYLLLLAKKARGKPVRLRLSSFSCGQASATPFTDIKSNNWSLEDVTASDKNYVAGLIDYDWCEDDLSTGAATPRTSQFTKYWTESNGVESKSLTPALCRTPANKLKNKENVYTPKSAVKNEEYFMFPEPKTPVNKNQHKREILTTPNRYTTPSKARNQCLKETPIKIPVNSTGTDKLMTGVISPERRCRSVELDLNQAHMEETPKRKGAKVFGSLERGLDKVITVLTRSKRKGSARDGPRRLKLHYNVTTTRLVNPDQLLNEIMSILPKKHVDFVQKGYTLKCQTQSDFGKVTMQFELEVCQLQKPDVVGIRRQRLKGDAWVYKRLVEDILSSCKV

[11] = molecular target: T3, ATP-dependent 6-phosphofructokinase, platelet type (Homo sapiens, UniProt Q01813)
T3 sequence (Q01813 whole entry): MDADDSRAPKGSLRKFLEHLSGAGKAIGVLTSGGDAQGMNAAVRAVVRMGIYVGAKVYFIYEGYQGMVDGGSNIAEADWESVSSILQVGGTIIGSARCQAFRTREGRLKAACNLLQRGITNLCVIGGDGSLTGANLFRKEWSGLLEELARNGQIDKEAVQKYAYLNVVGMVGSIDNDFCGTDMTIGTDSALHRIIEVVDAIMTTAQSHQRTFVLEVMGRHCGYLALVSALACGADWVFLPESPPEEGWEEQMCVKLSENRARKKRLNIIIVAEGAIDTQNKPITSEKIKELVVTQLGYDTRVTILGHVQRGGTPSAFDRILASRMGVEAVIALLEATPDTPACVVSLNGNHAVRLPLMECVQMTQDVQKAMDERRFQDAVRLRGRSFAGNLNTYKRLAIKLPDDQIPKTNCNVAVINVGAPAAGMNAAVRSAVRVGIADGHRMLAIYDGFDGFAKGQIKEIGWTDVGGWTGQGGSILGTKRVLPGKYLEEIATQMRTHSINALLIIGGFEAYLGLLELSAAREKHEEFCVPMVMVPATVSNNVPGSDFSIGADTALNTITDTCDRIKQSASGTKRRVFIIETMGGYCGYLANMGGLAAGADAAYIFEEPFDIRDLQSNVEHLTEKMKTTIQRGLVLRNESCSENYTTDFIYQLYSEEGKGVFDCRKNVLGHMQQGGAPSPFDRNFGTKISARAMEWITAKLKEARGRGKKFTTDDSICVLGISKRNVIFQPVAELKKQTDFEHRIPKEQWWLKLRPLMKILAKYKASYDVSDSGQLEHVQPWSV
Note: in the data inactive means no Kd found up to 30 µM.

Chain of Ephrin type-A receptor 5 (P54756 whole entry): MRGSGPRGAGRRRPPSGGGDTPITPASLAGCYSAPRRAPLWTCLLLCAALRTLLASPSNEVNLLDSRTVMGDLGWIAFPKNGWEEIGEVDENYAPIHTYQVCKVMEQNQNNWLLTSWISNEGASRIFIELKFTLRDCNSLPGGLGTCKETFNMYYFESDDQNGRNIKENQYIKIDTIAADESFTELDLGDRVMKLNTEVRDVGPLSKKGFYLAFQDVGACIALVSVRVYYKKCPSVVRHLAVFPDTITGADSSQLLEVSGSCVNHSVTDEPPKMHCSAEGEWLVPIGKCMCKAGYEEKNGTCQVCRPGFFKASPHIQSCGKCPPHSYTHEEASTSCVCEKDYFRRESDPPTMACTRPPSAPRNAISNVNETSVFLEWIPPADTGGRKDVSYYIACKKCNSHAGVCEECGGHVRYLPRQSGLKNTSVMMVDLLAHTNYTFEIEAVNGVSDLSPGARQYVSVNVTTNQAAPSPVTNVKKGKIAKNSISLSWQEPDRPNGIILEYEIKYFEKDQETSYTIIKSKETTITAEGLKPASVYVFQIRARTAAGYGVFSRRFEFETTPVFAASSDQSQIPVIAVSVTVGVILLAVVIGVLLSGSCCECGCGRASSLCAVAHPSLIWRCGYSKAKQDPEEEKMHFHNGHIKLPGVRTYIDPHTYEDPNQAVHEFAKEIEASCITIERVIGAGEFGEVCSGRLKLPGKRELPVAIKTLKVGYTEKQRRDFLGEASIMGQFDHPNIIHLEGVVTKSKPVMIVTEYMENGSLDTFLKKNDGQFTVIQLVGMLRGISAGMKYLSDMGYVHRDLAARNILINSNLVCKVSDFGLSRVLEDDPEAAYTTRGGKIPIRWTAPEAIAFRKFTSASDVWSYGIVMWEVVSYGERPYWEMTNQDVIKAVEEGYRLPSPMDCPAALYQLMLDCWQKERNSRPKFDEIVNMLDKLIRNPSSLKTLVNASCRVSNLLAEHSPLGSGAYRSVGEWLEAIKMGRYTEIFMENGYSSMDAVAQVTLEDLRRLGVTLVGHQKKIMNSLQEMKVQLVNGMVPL

Row | Structure (SMILES) | Kd [1] | Kd [2] | Kd [3] | Kd [4] | Kd [5] | pKd [6] | Kd [7] | Kd [8] | Kd [9] | Kd [10] | Kd [11] | Kd [6] | pKd [9]
1 | Cc1ccc(C(=O)Nc2ccc(Oc3cc4cnn(C)c4cc3-c3cn[nH]c3)c(F)c2)c(=O)n1-c1ccc(F)cc1 [MERESTINIB] | > 30 µM (inactive) | > 30 µM (inactive) | > 30 µM (inactive) | > 30 µM (inactive) | > 30 µM (inactive) | 6.63 | > 30 µM (inactive) | > 30 µM (inactive) | > 30 µM (inactive) | > 30 µM (inactive) | > 30 µM (inactive) |  | 
2 | O=C(O)c1ccc2c(c1)nc(Nc1cccc(Cl)c1)c1ccncc12 [SILMITASERTIB] | > 30 µM (inactive) | 3.66 µM (active) | > 30 µM (inactive) | > 30 µM (inactive) | > 30 µM (inactive) |  | > 30 µM (inactive) | > 30 µM (inactive) | > 30 µM (inactive) | > 30 µM (inactive) | > 30 µM (inactive) | > 30 µM (inactive) | 
3 | Cc1c(Cn2c(C)nc3c(C(=O)O)cc(N4CCOCC4)cc32)cccc1C(F)(F)F [GSK-2636771] | > 30 µM (inactive) | > 30 µM (inactive) | > 30 µM (inactive) | > 30 µM (inactive) | > 30 µM (inactive) |  | > 30 µM (inactive) | > 30 µM (inactive) | > 30 µM (inactive) | > 30 µM (inactive) | > 30 µM (inactive) | > 30 µM (inactive) | 
4 | Cn1cc(-c2[nH]c3cc(NC(=O)[C@H](N)C4CCCCC4)cc4c3c2C=NNC4=O)cn1 | > 30 µM (inactive) | > 30 µM (inactive) | > 30 µM (inactive) | > 30 µM (inactive) | > 30 µM (inactive) |  | > 30 µM (inactive) | > 30 µM (inactive) | > 30 µM (inactive) | 45.7 µM (active) | > 30 µM (inactive) | > 30 µM (inactive) | 
5 | COc1cc2ncnc(Nc3ccc(F)c(Cl)c3)c2cc1NC(=O)/C=C/CN1CCCCC1 [DACOMITINIB ANHYDROUS] | > 30 µM (inactive) | > 30 µM (inactive) | > 30 µM (inactive) | > 30 µM (inactive) | > 30 µM (inactive) |  | > 30 µM (inactive) | > 30 µM (inactive) | > 30 µM (inactive) | > 30 µM (inactive) | > 30 µM (inactive) | > 30 µM (inactive) | 
6 | S=C(NCc1ccc2c(c1)OCO2)N1CCN(c2ncnc3c2oc2ccccc23)CC1 [AMUVATINIB] | > 30 µM (inactive) | > 30 µM (inactive) | > 30 µM (inactive) | > 30 µM (inactive) | > 30 µM (inactive) |  | > 30 µM (inactive) | > 30 µM (inactive) | > 30 µM (inactive) | > 30 µM (inactive) | > 30 µM (inactive) | > 30 µM (inactive) | 
7 | COc1cc(F)c(F)c(Nc2ccc(I)cc2F)c1NS(=O)(=O)C1(C[C@H](O)CO)CC1 [REFAMETINIB] | > 30 µM (inactive) | > 30 µM (inactive) | > 30 µM (inactive) | > 30 µM (inactive) | > 30 µM (inactive) |  | > 30 µM (inactive) | > 30 µM (inactive) | > 30 µM (inactive) | > 30 µM (inactive) | > 30 µM (inactive) | > 30 µM (inactive) | 
8 | O[C@H]1CC[C@H](Nc2ncc3nc(Nc4c(F)cc(F)cc4F)n([C@H]4CCOC4)c3n2)CC1 [TANZISERTIB] | > 30 µM (inactive) | > 30 µM (inactive) | > 30 µM (inactive) | > 30 µM (inactive) | > 30 µM (inactive) |  | > 30 µM (inactive) | > 30 µM (inactive) |  | > 30 µM (inactive) | > 30 µM (inactive) | > 30 µM (inactive) | 5.58
9 | C#Cc1cccc(Nc2ncnc3cc4c(cc23)OCCOCCOCCO4)c1 [ICOTINIB] | > 30 µM (inactive) | > 30 µM (inactive) | > 30 µM (inactive) | > 30 µM (inactive) | > 30 µM (inactive) |  | > 30 µM (inactive) | > 30 µM (inactive) | > 30 µM (inactive) | > 30 µM (inactive) | > 30 µM (inactive) | > 30 µM (inactive) | 
10 | COc1cc2ncnc(Nc3ccc(O)cc3)c2cc1OC [WHI-P131] | > 30 µM (inactive) | > 30 µM (inactive) | > 30 µM (inactive) | > 30 µM (inactive) | > 30 µM (inactive) |  | > 30 µM (inactive) | > 30 µM (inactive) | > 30 µM (inactive) | > 30 µM (inactive) | > 30 µM (inactive) | > 30 µM (inactive) | 
11 | C=CC(=O)Nc1cc(Nc2nccc(-c3cn(C)c4ccccc34)n2)c(OC)cc1N(C)CCN(C)C [OSIMERTINIB] | > 30 µM (inactive) | > 30 µM (inactive) | > 30 µM (inactive) | > 30 µM (inactive) | > 30 µM (inactive) |  | > 30 µM (inactive) | > 30 µM (inactive) | > 30 µM (inactive) | > 30 µM (inactive) | > 30 µM (inactive) | > 30 µM (inactive) | 
12 | CCN1CCN(Cc2ccc(Nc3ncc(F)c(-c4cc(F)c5nc(C)n(C(C)C)c5c4)n3)nc2)CC1 [ABEMACICLIB] | > 30 µM (inactive) | > 30 µM (inactive) | > 30 µM (inactive) | > 30 µM (inactive) | > 30 µM (inactive) |  | > 30 µM (inactive) | > 30 µM (inactive) | > 30 µM (inactive) | > 30 µM (inactive) | > 30 µM (inactive) | > 30 µM (inactive) | 
